Converted amounts (≈) assume the structure as drawn. Read-outs that look alike come from different tables or passages of the source. Peptide text beside a SMILES is read from it.
Legend:
S. aureus TISTR 517 [1] = assay: Scanning electron microscopy of treated cells; format: cell-based, Staphylococcus aureus; conditions: 1× MIC, 16 h / 18 h (figure legend), 30,000× magnification
Text: (§1) SEM was used to examine morphological alterations in the bacterial cells. […] This appearance reflected their natural cellular structure.
(§2) Figure 5 SEM images captured at 30,000× magnification. […] The non-treatment condition served as a negative control.

MRSA strain 2468 [2] = assay: Scanning electron microscopy of treated cells; format: cell-based, Staphylococcus aureus; conditions: 1× MIC, 16 h / 18 h (figure legend), 30,000× magnification
Text: as §1, §2

trypsin = format: in vitro ADME; conditions: 32 µg/mL, trypsin 1 mg/mL, agar well diffusion read-out vs MRSA strain 2468, % of untreated sample, mean ± SD, n = 3
Protocol: (§3) The AMP solution was prepared in sterile purified water and adjusted to a final concentration of 32 µg/mL. To determine thermal stability, the AMP was exposed to temperatures of 30, 40, 60, 80, and 100 °C, as well as to autoclaving at 121 °C and 15 psi for 15 and 30 min. The susceptibility of the AMP to enzymatic degradation was examined by treating it with proteinase K, trypsin, and α-chymotrypsin (each at 1 mg/mL, Sigma-Aldrich, Warren, MI, USA), representing different proteolytic mechanisms. The AMP’s compatibility with surfactants was assessed by incubating it with 1% SDS, 1% CTAB, and 1% Triton X-100 (AppliChem GmbH, Darmstadt, Germany). Additionally, the effect of pH variations on AMP integrity was tested by adjusting the solution to pH 1, 4, 8, 10, and 14. The pH was neutralized to the original pH after incubation before conducting antibacterial activity tests. […] Stability data were expressed as residual activity percentages relative to the untreated sample (mean ± SD), and statistical significance was evaluated using two-way ANOVA and Tukey’s post hoc test, with a p-value < 0.05 considered significant.

MRSA strain 2468 [3] = assay: Stability to pH variation (activity retention by agar well diffusion); format: physicochemical, Staphylococcus aureus; conditions: 32 µg/mL, neutralized before test, agar well diffusion read-out, % of untreated sample, mean ± SD, n = 3
Protocol: as §3

S. aureus TISTR 517 [4] = assay: Broth microdilution MIC/MBC (CLSI); format: cell-based, Staphylococcus aureus; conditions: broth microdilution, CAMHB, 37 °C 24 h, triplicate
Protocol: The broth microdilution method was performed following the guidelines of the Clinical and Laboratory Standards Institute (CLSI). Test strains including S. aureus TISTR 517 and MRSA strains 142, 1096, and 2468 were cultured on MH agar at 37 °C for 18 h. A single colony from each strain was suspended in 0.85% NaCl until it reached a turbidity of 0.1 OD at 625 nm (1 × 10^8 CFU/mL). The bacterial cells were then diluted to 5 × 10^6 CFU/mL using cation-adjusted Mueller–Hinton broth (CAMHB). Ten microliters of the cell suspension were added to each well of a 96-well plate to make the total volume in each well 100 µL. The AMP was added to achieve final concentrations ranging from 0.125 to 64 µg/mL. Vancomycin and cefoxitin were used as positive controls, while antibiotic-free samples were used as negative controls. The plate was incubated at 37 °C for 24 h. Each experiment was performed in triplicate. The MIC was determined as the lowest concentration that inhibited visible bacterial growth. For the MBC, 100 µL from each dilution was spread on MH agar and incubated at 37 °C for 24 h. The MBC was the lowest concentration at which no bacterial colonies appeared on the agar plates.

MRSA strain 2468 [5] = assay: Thermal stability (activity retention by agar well diffusion); format: physicochemical, Staphylococcus aureus; conditions: for Antibacterial Activity Retention of FN33 AMP (%) Against MRSA Strain 2468: 32 µg/mL in water, agar well diffusion read-out, % of untreated sample, mean ± SD, n = 3
Protocol: as §3

S. aureus TISTR 517 [6] = assay: Time-kill assay; format: cell-based, Staphylococcus aureus; conditions: for bacterial reduction rate: triplicate
Protocol: (§4) The time–kill assay of FN33 AMP was conducted by measuring bacterial viability (log CFU/mL) at different time points. […] In the untreated group, bacterial growth increased over time, with a growth rate of 0.292 log CFU/h for S. aureus TISTR 517 and 0.2884 log CFU/h for MRSA strain 2468. […] However, complete eradication of S. aureus TISTR 517 was not achieved at either concentration, even after 24 h of treatment. […] The bactericidal effect was confirmed by complete eradication within 20 h of treatment. […] The killing rate against MRSA strain 2468 was faster than that observed for S. aureus TISTR 517 at all concentrations.
(§5) Error bars represent the standard deviation of triplicate experiments.

MRSA strain 2468 [7] = assay: Time-kill assay; format: cell-based, Staphylococcus aureus; conditions: for bacterial reduction rate: triplicate
Protocol: as §4, §5

With `CC(C)C[C@H](NC(=O)[C@H](CC(=O)O)NC(=O)[C@H](CS)NC(=O)[C@H](Cc1c[nH]cn1)NC(=O)[C@H](CS)NC(=O)[C@@H]1CCCN1C(=O)[C@@H](NC(=O)[C@H](CC(C)C)NC(=O)[C@H](CS)NC(=O)CNC(=O)[C@H](Cc1c[nH]c2ccccc12)NC(=O)[C@@H](NC(=O)[C@H](CC(=O)O)NC(=O)[C@@H](NC(=O)CNC(=O)[C@H](CS)NC(=O)CNC(=O)CNC(=O)[C@@H](N)CCC(=O)O)C(C)C)[C@@H](C)O)[C@@H](C)O)C(=O)N[C@@H](Cc1ccccc1)C(=O)N[C@@H](CS)C(=O)N[C@H](C(=O)N[C@H](C(=O)O)[C@@H](C)O)[C@@H](C)O` [FN33 AMP] (H-EGGCGVDTWGCLTPCHCDLFCTT-OH) the “morphological changes under SEM” value (S. aureus TISTR 517 [1]) was “dented and rough surface with fewer lysed cells”, the “morphological changes under SEM” value (MRSA strain 2468 [2]) was “greater number of completely lysed cells” and the “Antibacterial Activity Retention of FN33 AMP (%) Against MRSA Strain 2468” value (trypsin; 1 h) was 99.60 ± 0.6%. The “Antibacterial Activity Retention of FN33 AMP (%) Against MRSA Strain 2468” value (trypsin; 6 h) was 98.82 ± 0.67%, the “Antibacterial Activity Retention of FN33 AMP (%) Against MRSA Strain 2468” value (trypsin; 12 h) was 99.04 ± 1.02% and the “Antibacterial Activity Retention of FN33 AMP (%) Against MRSA Strain 2468” value (MRSA strain 2468 [3]; pH 1, 1 h) was 74.56 ± 0.69 %. For the same compound, the “Antibacterial Activity Retention of FN33 AMP (%) Against MRSA Strain 2468” value (MRSA strain 2468 [3]; pH 1, 6 h) was 76.51 ± 0.39 %, the “Antibacterial Activity Retention of FN33 AMP (%) Against MRSA Strain 2468” value (MRSA strain 2468 [3]; pH 1, 12 h) was 72.85 ± 0.22 *^,† % and the “Antibacterial Activity Retention of FN33 AMP (%) Against MRSA Strain 2468” value (MRSA strain 2468 [3]; pH 4, 1 h) was 97.42 ± 0.65 %. For the same compound, the “Antibacterial Activity Retention of FN33 AMP (%) Against MRSA Strain 2468” value (MRSA strain 2468 [3]; pH 4, 6 h) was 96.19 ± 0.21 %, the “Antibacterial Activity Retention of FN33 AMP (%) Against MRSA Strain 2468” value (MRSA strain 2468 [3]; pH 4, 12 h) was 95.30 ± 0.69 *^,† % and the “Antibacterial Activity Retention of FN33 AMP (%) Against MRSA Strain 2468” value (MRSA strain 2468 [3]; pH 8, 1 h) was 99.53 ± 0.41%. The “Antibacterial Activity Retention of FN33 AMP (%) Against MRSA Strain 2468” value (MRSA strain 2468 [3]; pH 8, 6 h) was 98.03 ± 0.65%, the “Antibacterial Activity Retention of FN33 AMP (%) Against MRSA Strain 2468” value (MRSA strain 2468 [3]; pH 8, 12 h) was 98.76 ± 0.81% and the “Antibacterial Activity Retention of FN33 AMP (%) Against MRSA Strain 2468” value (MRSA strain 2468 [3]; pH 10, 1 h) was 74.63 ± 0.79 %. For the same compound, the “Antibacterial Activity Retention of FN33 AMP (%) Against MRSA Strain 2468” value (MRSA strain 2468 [3]; pH 10, 6 h) was 73.12 ± 1.04 *^,† %, the “Antibacterial Activity Retention of FN33 AMP (%) Against MRSA Strain 2468” value (MRSA strain 2468 [3]; pH 10, 12 h) was 69.46 ± 0.77 *^,† % and the “Antibacterial Activity Retention of FN33 AMP (%) Against MRSA Strain 2468” value (MRSA strain 2468 [3]; pH 14, 1 h) was 68.58 ± 0.45 %. For the same compound, the “Antibacterial Activity Retention of FN33 AMP (%) Against MRSA Strain 2468” value (MRSA strain 2468 [3]; pH 14, 6 h) was 66.80 ± 0.27 *^,† %, the “Antibacterial Activity Retention of FN33 AMP (%) Against MRSA Strain 2468” value (MRSA strain 2468 [3]; pH 14, 12 h) was 65.80 ± 0.84 *^,† % and the MIC (S. aureus TISTR 517 [4]) was 16 µg/mL (≈ 6.61 µM). For the same compound, the “Antibacterial Activity Retention of FN33 AMP (%) Against MRSA Strain 2468” value (MRSA strain 2468 [5]; 30 °C, 1 h) was 100.00 ± 0.66%, the “Antibacterial Activity Retention of FN33 AMP (%) Against MRSA Strain 2468” value (MRSA strain 2468 [5]; 30 °C, 6 h) was 100.00 ± 0.17% and the “Antibacterial Activity Retention of FN33 AMP (%) Against MRSA Strain 2468” value (MRSA strain 2468 [5]; 30 °C, 12 h) was 99.79 ± 0.47%. For the same compound, the “Antibacterial Activity Retention of FN33 AMP (%) Against MRSA Strain 2468” value (MRSA strain 2468 [5]; 40 °C, 1 h) was 100.08 ± 0.48%, the “Antibacterial Activity Retention of FN33 AMP (%) Against MRSA Strain 2468” value (MRSA strain 2468 [5]; 40 °C, 6 h) was 100.02 ± 0.35% and the “Antibacterial Activity Retention of FN33 AMP (%) Against MRSA Strain 2468” value (MRSA strain 2468 [5]; 40 °C, 12 h) was 100.23 ± 0.28%. For the same compound, the “Antibacterial Activity Retention of FN33 AMP (%) Against MRSA Strain 2468” value (MRSA strain 2468 [5]; 60 °C, 1 h) was 98.58 ± 1.74%, the “Antibacterial Activity Retention of FN33 AMP (%) Against MRSA Strain 2468” value (MRSA strain 2468 [5]; 60 °C, 6 h) was 93.53 ± 1.27 *^,† % and the “Antibacterial Activity Retention of FN33 AMP (%) Against MRSA Strain 2468” value (MRSA strain 2468 [5]; 60 °C, 12 h) was 86.98 ± 0.79 *^,† %. For the same compound, the “Antibacterial Activity Retention of FN33 AMP (%) Against MRSA Strain 2468” value (MRSA strain 2468 [5]; 80 °C, 1 h) was 95.17 ± 0.43 %, the “Antibacterial Activity Retention of FN33 AMP (%) Against MRSA Strain 2468” value (MRSA strain 2468 [5]; 80 °C, 6 h) was 90.91 ± 0.26 *^,† % and the “Antibacterial Activity Retention of FN33 AMP (%) Against MRSA Strain 2468” value (MRSA strain 2468 [5]; 80 °C, 12 h) was 82.46 ± 0.55 *^,† %. The “Antibacterial Activity Retention of FN33 AMP (%) Against MRSA Strain 2468” value (MRSA strain 2468 [5]; 100 °C, 1 h) was 90.83 ± 0.67 %, the “Antibacterial Activity Retention of FN33 AMP (%) Against MRSA Strain 2468” value (MRSA strain 2468 [5]; 100 °C, 6 h) was 83.38 ± 0.83 *^,† % and the “Antibacterial Activity Retention of FN33 AMP (%) Against MRSA Strain 2468” value (MRSA strain 2468 [5]; 100 °C, 12 h) was 79.97 ± 0.06 *^,† %. The “Antibacterial Activity Retention of FN33 AMP (%) Against MRSA Strain 2468” value (MRSA strain 2468 [5]; autoclave 121 °C and 15 psi, 15 min) was 72.82 ± 0.53 %, the “Antibacterial Activity Retention of FN33 AMP (%) Against MRSA Strain 2468” value (MRSA strain 2468 [5]; autoclave 121 °C and 15 psi, 30 min) was 65.87 ± 0.82 *^,† % and the “activity lost due to elevated temperatures” value (MRSA strain 2468 [5]; 60 °C, 80 °C and 100 °C, over 12 h) was “up to 20%”. The bacterial reduction rate (S. aureus TISTR 517 [6]; 1× MIC, up to 24 h) was 0.0496 log CFU/h, the bacterial reduction rate (S. aureus TISTR 517 [6]; 2× MIC, up to 24 h) was 0.1322 log CFU/h and the “time to complete eradication” value (S. aureus TISTR 517 [6]; 4× MIC) was no more than 20 h. For the same compound, the bacterial reduction rate (S. aureus TISTR 517 [6]; 4× MIC) was 0.2704 log CFU/h, the bacterial reduction rate (MRSA strain 2468 [7]; 1× MIC) was 0.1519 log CFU/h and the “time to eradication (no detectable bacterial counts)” value (MRSA strain 2468 [7]; 2× MIC) was no more than 20 h. For the same compound, the bacterial reduction rate (MRSA strain 2468 [7]; 2× MIC) was 0.2498 log CFU/h, the “time to eradication (no detectable bacterial counts)” value (MRSA strain 2468 [7]; 4× MIC) was no more than 12 h and the bacterial reduction rate (MRSA strain 2468 [7]; 4× MIC) was 0.4508 log CFU/h.

Reference: paper PMC12113356, “Novel Anti-MRSA Peptide from Mangrove-Derived Virgibacillus chiguensis FN33 Supported by Genomics and Molecular Dynamics” (Marine Drugs, 2025)
